Among the data in ChEMBL document CHEMBL3826977, “Discovery and Structural Characterization of G-quadruplex DNA in Human Acetyl-CoA Carboxylase Gene Promoters: Its Role in Transcriptional Regulation and as a Therapeutic Target for Human Disease” (J Med Chem, 2016) are Kd, Activity and inhibition values, retold here.

Data set [1] can be described thus: Binding affinity to human ACC1 promoter2 G-quadraduplex DNA.
Data set [2] in a line: Binding affinity to human ACC1 promoter1 G-quadraduplex DNA.
The species named for data set [3] is Homo sapiens. Description: Binding affinity to human ACC1 promoter2 G-quadraduplex DNA assessed as hyperchromic shift at 5 uM by UV-vis absorption spectroscopy.
For data set [4], the species on record is Homo sapiens. Description: Binding affinity to human ACC1 promoter1 G-quadraduplex DNA mutant assessed as inhibition of Taq-polymerase catalyzed primer extension preincubated for 1 hr followed by addition of Taq-polymerase measured after 30 mins by Taq-polymerase stop assay.
The species named for data set [5] is Homo sapiens. Description: Binding affinity to human ACC1 promoter1 G-quadraduplex DNA assessed as inhibition of Taq-polymerase catalyzed primer extension preincubated for 1 hr followed by addition of Taq-polymerase measured after 30 mins by Taq-polymerase stop assay.
The species entered for data set [6] is Homo sapiens. The data set can be described thus: Binding affinity to human ACC1 promoter2 G-quadraduplex DNA mutant assessed as inhibition of Taq-polymerase catalyzed primer extension preincubated for 1 hr followed by addition of Taq-polymerase measured after 30 mins in presence of KCl by Taq-polymerase stop assay.
The species entered for data set [7] is Homo sapiens. Description: Binding affinity to human ACC1 promoter2 G-quadraduplex DNA assessed as inhibition of Taq-polymerase catalyzed primer extension preincubated for 1 hr followed by addition of Taq-polymerase measured after 30 mins in presence of KCl by Taq-polymerase stop assay.
Data set [8] relates to HeLa. The data set can be described thus: Binding affinity to human wild type ACC1 promoter1 G-quadraduplex DNA transfected in human HeLa cells assessed as suppression of ACC1 gene expression at 0.1 to 25 uM after 24 hrs by dual luciferase reporter assay relative to control. The class given is cell-based. A general note: In a reporter assay the amount or activity of a reporter protein is the signal.

For data set [9], the species on record is Homo sapiens. Description: Binding affinity to human ACC1 promoter1 G-quadraduplex DNA at 5 uM by UV-vis absorption spectroscopy.
Data set [10] is filed under the species Homo sapiens. The data set can be described thus: Binding affinity to human ACC1 promoter2 G-quadraduplex DNA assessed as apparent isosbestic point at 5 uM by UV-vis absorption spectroscopy.
In data set [11] the test system is HeLa. Description: Binding affinity to human wild type ACC1 promoter2 G-quadraduplex DNA transfected in human HeLa cells assessed as suppression of ACC1 gene expression at 0.1 to 25 uM after 24 hrs by dual luciferase reporter assay relative to control. The class given is cell-based.
For data set [12], the species on record is Homo sapiens. Description: Binding affinity to human ACC1 promoter1 G-quadraduplex DNA assessed as decrease in fluorescence emission intensity by fluorescence emission spectroscopy.
The species entered for data set [13] is Homo sapiens. The data set can be described thus: Binding affinity to human ACC1 promoter2 G-quadraduplex DNA assessed as decrease in fluorescence emission intensity by fluorescence emission spectroscopy.
Data set [14] is filed under the species Homo sapiens. The data set can be described thus: Binding affinity to human ACC1 promoter2 G-quadraduplex DNA assessed as bathochromic red shift at 5 uM by UV-vis absorption spectroscopy.
The subject of data set [15] is HeLa. Description: Binding affinity to human wild type ACC1 promoter2 G-quadraduplex DNA transfected in human HeLa cells assessed as suppression of ACC1 gene expression after 24 hrs by dual luciferase reporter assay. The class given is cell-based.
In data set [16] the test system is HeLa. The data set can be described thus: Binding affinity to human wild type ACC1 promoter1 G-quadraduplex DNA transfected in human HeLa cells assessed as suppression of ACC1 gene expression after 24 hrs by dual luciferase reporter assay. The class given is cell-based.
Data set [17] deals with HeLa. Description: Effect on GAPDH gene expression in human HeLa cells at 5 to 20 uM after 24 hrs by qRT-PCR method. The class given is ADME, cell-based.
Data set [18] relates to HeLa. Description: Binding affinity to human ACC1 promoter G-quadraduplex DNA transfected in human HeLa cells assessed as suppression of ACC1 gene expression after 24 hrs by qRT-PCR method. The class given is cell-based.

Calls of active or inactive are those of the source. No cut-off for these calls is given here.

Turning to `C[n+]1ccc(-c2c3nc(c(-c4cc[n+](C)cc4)c4ccc([nH]4)c(-c4cc[n+](C)cc4)c4nc(c(-c5cc[n+](C)cc5)c5ccc2[nH]5)C=C4)C=C3)cc1`, the Kd in data set [1] and in data set [2] was 70 nM in each case.
Take `C[n+]1ccc(-c2c3nc(c(-c4cc[n+](C)cc4)c4ccc([nH]4)c(-c4cc[n+](C)cc4)c4ccc([nH]4)c(-c4cc[n+](C)cc4)c4nc2C=C4)C=C3)cc1`: the result in the data set filed under Homo sapiens [3], in the data set listed under Homo sapiens [9], in the data set listed under Homo sapiens [12] and in the data set filed under Homo sapiens [13] was Active. The inhibition (usually the change of the read-out against control, counted positive when it falls) in the data set listed under Homo sapiens [4] was “inactive”. Further, the inhibition entry in the data set listed under Homo sapiens [5] is “Dose-dependent effect”; in the data set listed under Homo sapiens [7] it was “Dose-dependent effect”; in the data set on HeLa [8] it was 67%; in the data set on HeLa [11], 84%; in the data set on HeLa [15], “Dose-dependent effect”; with HeLa [16], “Dose-dependent effect”. The inhibition result in the data set filed under Homo sapiens [6] is “Active”. The values for the Activity in the data set listed under Homo sapiens [10] and in the data set listed under Homo sapiens [14] were 432 nm and 18 nm, respectively.
As for `c1cc2c(cc1-c1nc3cc(N4CCOCC4)ccc3[nH]1)c1cc(-c3nc4cc(N5CCOCC5)ccc4[nH]3)ccc1n2CCCCN1CCOCC1`, the Activity entry in the data set with HeLa [17] is given as “Non-toxic”. Moreover, the inhibition result in the data set with HeLa [18] was “Dose-dependent effect”.
